Literature values as cited in US12324811B2, “Intranasal formulation” (CIPLA LIMITED, priority 2018, dated 2025).

Columns and labels:
[1] = active metabolite
[2] = oral administration
[3] = intranasally administered, children and adults

Compound | contribution to biological activity of midazolam [1] | drug reaching the bloodstream [2] | onset of action [3]
OCc1ncc2n1-c1ccc(Cl)cc1C(c1ccccc1F)=NC2 [alpha1-hydroxymidazolam] | 10% | – | –
Midazolam | – | 50% | about 10 minutes
